Source: the NIST ThermoML archive (doi:10.1016/j.jct.2015.02.007)
Numbers after ± are expanded uncertainties.

What was measured:
[1] = xn = mol fraction of the nth substance listed; conditions: 100 kPa, Liquid, x2 = 0; for mass density: Vibrating tube method
[2] = 100 kPa, Liquid; for mass density: Vibrating tube method

SMILES | mass density ([1]; 278.15 K) | mass density ([1]; 283.15 K) | speed of sound ([1]; 318.15 K, Pulse-echo method) | mass density ([1]; 323.15 K) | mass density ([1]; 328.15 K) | mass density ([1]; 333.15 K) | mass density ([2]; 278.15 K) | mass density ([2]; 283.15 K) | speed of sound ([2]; 318.15 K, Pulse-echo method) | mass density ([2]; 323.15 K) | mass density ([2]; 328.15 K) | mass density ([2]; 333.15 K)
O [water] + OCCOCCOCCOCCO | 999.965 ± 0.11 kg/m3 | 999.698 ± 0.11 kg/m3 | 1536.7 ± 0.99 m/s | 988.027 ± 0.11 kg/m3 | 985.682 ± 0.11 kg/m3 | 983.186 ± 0.11 kg/m3 |  |  |  |  |  | 
O [water] |  |  |  |  |  |  | 999.965 ± 0.11 kg/m3 | 999.698 ± 0.11 kg/m3 | 1536.7 ± 0.99 m/s | 988.027 ± 0.11 kg/m3 | 985.682 ± 0.11 kg/m3 | 983.186 ± 0.11 kg/m3
